Data: PubChem BioAssay AID1963853 (Molecular Pharmacology Branch, DTP, NCI, 2024)

Test system: 266295-075-R-J1-PDC spheroid viability
Assay: Anticancer human tumor 266295-075-R-J1-PDC patient-derived head and neck squamous carcinoma cell line growth inhibition [POLQ]
Conditions: spheroids with HUVEC and MSC; for IC50: curve of first compound; for viability, T/C: stronger effect = lower value
How it was run: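 Complex spheroid viability model combining PDC tumour cells with endothelial (HUVEC) and MSC stromal cells. Novobiocin, ART-558 or RP6685 were tested singly and in combination with standard and investigational anticancer drugs. Each was titrated in half-log steps from near clinical Cmax, or from 10 microM where Cmax was unknown.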

[1] = second compound 0.0316 µM, first compound 0.0316 µM
[2] = second compound 0.0316 µM, first compound 0.1 µM
[3] = second compound 0.0316 µM, first compound 0.316 µM
[4] = second compound 0.0316 µM, first compound 1 µM
[5] = second compound 0.0316 µM, first compound 3.16 µM
[6] = second compound 0.0316 µM, first compound 10 µM
[7] = second compound 0.1 µM, first compound 0.0316 µM
[8] = second compound 0.1 µM, first compound 0.1 µM
[9] = second compound 0.1 µM, first compound 0.316 µM
[10] = second compound 0.1 µM, first compound 1 µM
[11] = second compound 0.1 µM, first compound 3.16 µM
[12] = second compound 0.1 µM, first compound 10 µM
[13] = second compound 0.316 µM, first compound 0.0316 µM
[14] = second compound 0.316 µM, first compound 0.1 µM
[15] = second compound 0.316 µM, first compound 0.316 µM
[16] = second compound 0.316 µM, first compound 1 µM
[17] = second compound 0.316 µM, first compound 3.16 µM
[18] = second compound 0.316 µM, first compound 10 µM
[19] = second compound 1 µM, first compound 0.0316 µM
[20] = second compound 1 µM, first compound 0.1 µM
[21] = second compound 1 µM, first compound 0.316 µM
[22] = second compound 1 µM, first compound 1 µM
[23] = second compound 1 µM, first compound 3.16 µM
[24] = second compound 1 µM, first compound 10 µM
[25] = second compound 3.16 µM, first compound 0.0316 µM
[26] = second compound 3.16 µM, first compound 0.1 µM
[27] = second compound 3.16 µM, first compound 0.316 µM
[28] = second compound 3.16 µM, first compound 1 µM
[29] = second compound 3.16 µM, first compound 3.16 µM
[30] = second compound 3.16 µM, first compound 10 µM
[31] = second compound 10 µM, first compound 0.0316 µM
[32] = second compound 10 µM, first compound 0.1 µM
[33] = second compound 10 µM, first compound 0.316 µM
[34] = second compound 10 µM, first compound 1 µM
[35] = second compound 10 µM, first compound 3.16 µM
[36] = second compound 10 µM, first compound 10 µM
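Further: spheroids exposed to compounds for seven days before readout.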

Structure (SMILES): CCc1cc2c(N3CCc4c(cc(Cn5ccnc5)cc4-c4cn(C)nc4C(F)(F)F)C3=O)ccnc2c(OC)n1 + COC1C(OC(N)=O)C(O)C(Oc2ccc3c(O)c(NC(=O)c4ccc(O)c(CC=C(C)C)c4)c(=O)oc3c2C)OC1(C)C
- IC50 (second compound 0.0316 µM): > 10 µM
- IC50 (second compound 0.1 µM): > 10 µM
- IC50 (second compound 0.316 µM): > 10 µM
- IC50 (second compound 1 µM): > 10 µM
- IC50 (second compound 3.16 µM): > 10 µM
- IC50 (second compound 10 µM): > 10 µM
- viability, T/C [1]: 88.9%
- viability, T/C [2]: 93%
- viability, T/C [3]: 119%
- viability, T/C [4]: 104%
- viability, T/C [5]: 144%
- viability, T/C [6]: 132%
- viability, T/C [7]: 117%
- viability, T/C [8]: 96.8%
- viability, T/C [9]: 127%
- viability, T/C [10]: 107%
- viability, T/C [11]: 114%
- viability, T/C [12]: 132%
- viability, T/C [13]: 94.8%
- viability, T/C [14]: 96.7%
- viability, T/C [15]: 95%
- viability, T/C [16]: 129%
- viability, T/C [17]: 120%
- viability, T/C [18]: 115%
- viability, T/C [19]: 95.3%
- viability, T/C [20]: 80.9%
- viability, T/C [21]: 94%
- viability, T/C [22]: 102%
- viability, T/C [23]: 129%
- viability, T/C [24]: 127%
- viability, T/C [25]: 100%
- viability, T/C [26]: 101%
- viability, T/C [27]: 104%
- viability, T/C [28]: 117%
- viability, T/C [29]: 159%
- viability, T/C [30]: 146%
- viability, T/C [31]: 90.2%
- viability, T/C [32]: 87.7%
- viability, T/C [33]: 111%
- viability, T/C [34]: 117%
- viability, T/C [35]: 145%
- viability, T/C [36]: 135%

Structure (SMILES): C=CC(=O)N1CCN(c2nc(=O)n(-c3c(C)ccnc3C(C)C)c3nc(-c4c(O)cccc4F)c(F)cc23)C(C)C1 (stereo unspecified) + Cc1cccc(N(C)C(=O)C2C(O)CCN2c2nc(C)cc(C(F)(F)F)c2C#N)c1
- IC50 (second compound 0.0316 µM): > 10 µM
- IC50 (second compound 0.1 µM): > 10 µM
- IC50 (second compound 0.316 µM): > 10 µM
- IC50 (second compound 1 µM): > 10 µM
- IC50 (second compound 3.16 µM): > 10 µM
- IC50 (second compound 10 µM): > 10 µM
- viability, T/C [1]: 95.2%
- viability, T/C [2]: 89.3%
- viability, T/C [3]: 97%
- viability, T/C [4]: 110%
- viability, T/C [5]: 140%
- viability, T/C [6]: 126%
- viability, T/C [7]: 91.5%
- viability, T/C [8]: 92.7%
- viability, T/C [9]: 96.2%
- viability, T/C [10]: 115%
- viability, T/C [11]: 123%
- viability, T/C [12]: 131%
- viability, T/C [13]: 93.6%
- viability, T/C [14]: 116%
- viability, T/C [15]: 100%
- viability, T/C [16]: 126%
- viability, T/C [17]: 116%
- viability, T/C [18]: 121%
- viability, T/C [19]: 91.6%
- viability, T/C [20]: 108%
- viability, T/C [21]: 112%
- viability, T/C [22]: 103%
- viability, T/C [23]: 125%
- viability, T/C [24]: 130%
- viability, T/C [25]: 99.5%
- viability, T/C [26]: 105%
- viability, T/C [27]: 118%
- viability, T/C [28]: 133%
- viability, T/C [29]: 126%
- viability, T/C [30]: 116%
- viability, T/C [31]: 117%
- viability, T/C [32]: 108%
- viability, T/C [33]: 128%
- viability, T/C [34]: 120%
- viability, T/C [35]: 132%
- viability, T/C [36]: 105%

Structure (SMILES): CC1COCCN1c1cc(C2(S(C)(=N)=O)CC2)nc(-c2ccnc3[nH]ccc23)n1 (stereo unspecified) + COC1C(OC(N)=O)C(O)C(Oc2ccc3c(O)c(NC(=O)c4ccc(O)c(CC=C(C)C)c4)c(=O)oc3c2C)OC1(C)C
- IC50 (second compound 0.0316 µM): > 10 µM
- IC50 (second compound 0.1 µM): > 10 µM
- IC50 (second compound 0.316 µM): > 10 µM
- IC50 (second compound 1 µM): > 10 µM
- IC50 (second compound 3.16 µM): > 10 µM
- IC50 (second compound 10 µM): > 10 µM
- viability, T/C [1]: 101%
- viability, T/C [2]: 82.5%
- viability, T/C [3]: 105%
- viability, T/C [4]: 77.9%
- viability, T/C [5]: 74.9%
- viability, T/C [6]: 56.8%
- viability, T/C [7]: 82.6%
- viability, T/C [8]: 87.9%
- viability, T/C [9]: 89.6%
- viability, T/C [10]: 87.9%
- viability, T/C [11]: 82.7%
- viability, T/C [12]: 63.5%
- viability, T/C [13]: 89.2%
- viability, T/C [14]: 86.8%
- viability, T/C [15]: 101%
- viability, T/C [16]: 81.1%
- viability, T/C [17]: 94.7%
- viability, T/C [18]: 52.2%
- viability, T/C [19]: 95.4%
- viability, T/C [20]: 105%
- viability, T/C [21]: 95.2%
- viability, T/C [22]: 92.7%
- viability, T/C [23]: 78.2%
- viability, T/C [24]: 62.2%
- viability, T/C [25]: 105%
- viability, T/C [26]: 93.6%
- viability, T/C [27]: 91.9%
- viability, T/C [28]: 81.9%
- viability, T/C [29]: 79.1%
- viability, T/C [30]: 63.1%
- viability, T/C [31]: 92.4%
- viability, T/C [32]: 105%
- viability, T/C [33]: 88.9%
- viability, T/C [34]: 72.5%
- viability, T/C [35]: 68.8%
- viability, T/C [36]: 56.1%
